Source: patent US20260184807A1, “Methods for Treating Rheumatoid Arthritis Using a Syndecan-1 Inhibitor or Syntenin-1 Inhibitor” (The United States Government as represented by the …, priority 2022, published 2026)

Tested on: HUVECs
Test: Syntenin-1 stimulation and inhibition in HUVECs (qRT-PCR)
Format: cell-based, human
Conditions: Syntenin-1 1000 ng/ml, mTORi 1 μM, cMYCi 50 μM
Description: FIGS. 11A-J show Syntenin-1 reprogrammed endothelial cells display a robust inflammatory phenotype. Relative expression of Syntenin-1 (FIG. 11A) or SDC-1 (FIG. 11B) was determined by RNAseq (Lewis M J, et al. Cell reports. 2019; 28:2455-2470 e2455) in synovial tissue biopsies from RA non-responsive (Non-R)(ΔDAS28≤0.6, n=16-23) and moderate (ΔDAS28 1.2 & >0.6, n=21) and good responsive (ΔDAS28>1.2, n=35-50) patients. […] HUVECs were treated with PBS (ctrl) or Syntenin-1 (1000 ng/ml) for 6 h and transcription of IRFs (FIG. 11E), inflammatory mediators (FIG. 11F), TLRs (FIG. 11I), and pro-repair factors (FIG. 11J) were assessed by qRT-PCR (n=7-12). HUVECs were treated with PBS or Syntenin-1 (1000 ng/ml) in the presence or absence of SDC-1 Ab (SDCab; 1:100), IL-5R Ab (IL5Ra; 2 μg/ml), or PDZli (PDZ1; 10 μM) for 6 h before quantifying transcription levels of TNFα (FIG. 11G) and IL-1β (FIG. 11H), (5-7). Data are presented as mean±SEM; significant differences were determined by the Mann-Whitney test, 2way ANOVA, or one-way ANOVA. *p<0.05, **p<0.01, ***p<0.001, ****p<0.0001. […]
Syntenin-1 stimulation and inhibition. […] Cells were subsequently harvested in TRIzol reagent (Life Technologies) or RIPA buffer (Cell Signaling Technology) for mRNA quantification and western blot analysis; conditioned media was collected for ELISA.
Quantitative Real-Time PCR. […]

CO[C@H]1C[C@@H]2CC[C@@H](C)[C@@](O)(O2)C(=O)C(=O)N2CCCC[C@H]2C(=O)O[C@H]([C@H](C)C[C@@H]2CC[C@@H](OCCO)[C@H](OC)C2)CC(=O)[C@H](C)/C=C(\C)[C@@H](O)[C@@H](OC)C(=O)[C@H](C)C[C@H](C)/C=C/C=C/C=C/1C [mTORi, Everolimus]
TNF expression in Syntenin-1-reconfigured endothelial cells (HIF1αi 2 μM, FIG. 13H): diminished
Syntenin-1-elevated HIF1α expression levels (FIG. 13E): dysregulated
